Experimental data as given in patent US11339165B2, “Pyrazolopyrimidines having activity against the respiratory syncytial virus (RSV)” (priority 2017, dated 2022).

What was measured:
rgRSV224 virus = assay: Antiviral activity: rgRSV224 (GFP) replication in HeLa cells; assay type: cell-based, respiratory syncytial virus (RSV); conditions: human respiratory syncytial virus, HeLa, 72 h, read-out: RSV HELA EC50 (μM), rgRSV224 virus (MOI=1), HeLa cells, GFP expression three days post-virus exposure
in vitro = conditions: human, TOX HELA CC50 (μM)
Procedure: Black 384-well clear-bottom microtiter plates (Corning, Amsterdam, The Netherlands) were filled via acoustic drop ejection using the echo liquid handler (Labcyte, Sunnyvale, Calif.). 200 nL of compound stock solutions (100% DMSO) were transferred to the assay plates. 9 serial 4-fold dilutions of compound were made, creating per quadrant the same compound concentration. The assay was initiated by adding 10 μL of culture medium to each well (RPMI medium without phenol red, 10% FBS-heat inactivated, 0.04% gentamycin (50 mg/mL). All addition steps are done by using a multidrop dispenser (Thermo Scientific, Erembodegem, Belgium). Next, rgRSV224 virus (MOI=1) diluted in culture medium was added to the plates. rgRSV224 virus is an engineered virus that includes an additional GFP gene (Hallak L K, Spillmann D, Collins P L, Peeples M E. Glycosaminoglycan sulfation requirements for respiratory syncytial virus infection; Journal of virology (2000), 74(22), 10508-13) and was in-licensed from the NIH (Bethesda, Md., USA). Finally, 20 μL of a HeLa cell suspension (3,000 cells/well) were plated. Medium, virus- and mock-infected controls were included in each test. The wells contain 0.05% DMSO per volume. Cells were incubated at 37° C. in a 5% CO2 atmosphere. Three days post-virus exposure, viral replication was quantified by measuring GFP expression in the cells by an in house developed MSM laser microscope (Tibotec, Beerse, Belgium). The EC50 was defined as the 50% inhibitory concentration for GFP expression. In parallel, compounds were incubated for three days in a set of white 384-well microtiter plates (Corning) and the cytotoxicity of compounds in HeLa cells was determined by measuring the ATP content of the cells using the ATPlite kit (Perkin Elmer, Zaventem, Belgium) according to the manufacturer's instructions. The CC50 was defined as the 50% concentration for cytotoxicity.

| Structure (SMILES) | EC50 (rgRSV224 virus) | CC50 at 3 days (in vitro) | melting point |
| --- | --- | --- | --- |
| C[C@@H]1c2ccccc2CCN1C(=O)c1cc(C2CC2)n2nc(-c3ccc(N4C[C@H](C(N)=O)C[C@H]4C)cc3F)cc2n1 (single isomer, unassigned) [Compound 32, (3*R,5*R)-1-(4-{7-cyclopropyl-5-[(1R)-1-methyl-1,2,3,4-tetrahydroisoquinoline-2-carbonyl]pyrazolo[1,5-a]pyrimidin-2-yl}-3-fluorophenyl)-5-methylpyrrolidine-3-carboxamide] | 0.06 µM | 32.1 µM | 297.57 °C |
| C[C@@H]1c2ccccc2CCN1C(=O)c1cc(C2CC2)n2nc(-c3ccc(N4C[C@H](C(N)=O)C[C@@H]4C)cc3F)cc2n1 (single isomer, unassigned) [Compound 33, (3*R,5*S)-1-(4-{7-cyclopropyl-5-[(1R)-1-methyl-1,2,3,4-tetrahydroisoquinoline-2-carbonyl]pyrazolo[1,5-a]pyrimidin-2-yl}-3-fluorophenyl)-5-methylpyrrolidine-3-carboxamide] | 0.043 µM | 34.5 µM | 292.7 °C |
| C[C@@H]1c2ccsc2CCN1C(=O)c1cc(C2CC2)n2nc(-c3ccc(N4CC[C@H](CC(N)=O)C4)cc3F)cc2n1 (single isomer, unassigned) [Compound 42, 2-[(3R)-1-(4-{7-Cyclopropyl-5-[(4*R)-4-methyl-4,5,6,7-tetrahydro-thieno[3,2-c]pyridine-5-carbonyl]pyrazolo[1,5-a]pyrimidin-2-yl}-3-fluorophenyl)pyrrolidin-3-yl]acetamide] | 0.025 µM | 28.9 µM | 206.84 °C |
| C[C@@H]1c2ccsc2CCN1C(=O)c1cc(C2CC2)n2nc(-c3ccc(N4CC[C@@H](CC(N)=O)C4)cc3F)cc2n1 (single isomer, unassigned) [Compound 43, 2-[(3S)-1-(4-{7-Cyclopropyl-5-[(4*R)-4-methyl-4,5,6,7-tetrahydro-thieno[3,2-c]pyridine-5-carbonyl]pyrazolo[1,5-a]pyrimidin-2-yl}-3-fluorophenyl)pyrrolidin-3-yl]acetamide] | 0.017 µM | 29.8 µM | 214.36 °C |
| C[C@@H]1c2ccsc2CCN1C(=O)c1cc(C2CC2)n2nc(-c3ccc(N4CC[C@H](C(N)=O)C4)cc3F)cc2n1 (single isomer, unassigned) [Compound 46, (3S)-1-(4-{7-Cyclopropyl-5-[(4*R)-4-methyl-4,5,6,7-tetrahydro-thieno[3,2-c]pyridine-5-carbonyl]pyrazolo[1,5-a]pyrimidin-2-yl}-3-fluorophenyl)pyrrolidine-3-carboxamide] | 0.007 µM | 31.3 µM | 270 °C |
| C[C@@H]1c2cc(F)ccc2CCN1C(=O)c1cc(C2CC2)n2nc(-c3ccc(N4CC[C@H](C(N)=O)C4)cc3F)cc2n1 (single isomer, unassigned) [Compound 47, (3S)-1-(4-{7-Cyclopropyl-5-[(1*R)-7-fluoro-1-methyl-1,2,3,4-tetrahydroisoquinoline-2-carbonyl]pyrazolo[1,5-a]pyrimidin-2-yl}-3-fluorophenyl)pyrrolidine-3-carboxamide] | 0.009 µM | 41.5 µM | 245.69 °C |
| C[C@@H]1c2ccccc2CCN1C(=O)c1cc(C2CC2)n2nc(-c3ccc(N4CC[C@@H](C(N)=O)[C@H]4C)cc3F)cc2n1 (single isomer, unassigned) [Compound 80, (2*R,3*R)-1-(4-{7-Cyclopropyl-5-[(1R)-1-methyl-1,2,3,4-tetrahydroisoquinoline-2-carbonyl]pyrazolo[1,5-a]pyrimidin-2-yl}-3-fluorophenyl)-2-methylpyrrolidine-3-carboxamide] | 0.091 µM | 35.9 µM | 182.93 °C |
| C[C@@H]1c2ccccc2CCN1C(=O)c1cc(C2CC2)n2nc(-c3ccc(N4CC[C@H](C(N)=O)[C@H]4C)cc3F)cc2n1 (single isomer, unassigned) [Compound 81, (2*R,3*S)-1-(4-{7-Cyclopropyl-5-[(1R)-1-methyl-1,2,3,4-tetrahydroisoquinoline-2-carbonyl]pyrazolo[1,5-a]pyrimidin-2-yl}-3-fluorophenyl)-2-methylpyrrolidine-3-carboxamide] | 0.099 µM | 38.4 µM | 271.19 °C |
| C[C@@H]1c2ccccc2CCN1C(=O)c1cc(C2CC2)n2nc(-c3ccc(N4CC[C@@H](C(N)=O)[C@@H]4C)cc3F)cc2n1 (single isomer, unassigned) [Compound 82, (2*S,3*R)-1-(4-{7-Cyclopropyl-5-[(1R)-1-methyl-1,2,3,4-tetrahydroisoquinoline-2-carbonyl]pyrazolo[1,5-a]pyrimidin-2-yl}-3-fluorophenyl)-2-methylpyrrolidine-3-carboxamide] | 0.033 µM | 33.1 µM | 294.89 °C |
| Cc1cc(N2CC[C@H](C(N)=O)C2)cc(F)c1-c1cc2nc(C(=O)N3CCc4ccccc4[C@H]3C)cc(C3CC3)n2n1 [Compound 89, (3S)-1-(4-{7-Cyclopropyl-5-[(1R)-1-methyl-1,2,3,4-tetrahydroisoquinoline-2-carbonyl]pyrazolo[1,5-a]pyrimidin-2-yl}-3-fluoro-5-methylphenyl)pyrrolidine-3-carboxamide] | 0.165 µM | 33.4 µM | – |
| C[C@@H]1c2ccccc2CCN1C(=O)c1cc(-c2cncc(F)c2)n2nc(-c3ccc(N4CC[C@H](C(N)=O)C4)cc3F)cc2n1 [Compound 90, (3S)-1-{3-Fluoro-4-[7-(5-fluoropyridin-3-yl)-5-[(1R)-1-methyl-1,2,3,4-tetrahydro-isoquinoline-2-carbonyl]pyrazolo[1,5-a]pyrimidin-2-yl]phenyl}pyrrolidine-3-carboxamide] | 0.046 µM | – | 269.08 °C |
| C[C@@H]1c2ccccc2CCN1C(=O)c1cc(C2CC2)n2nc(-c3ccc(N4CC(CC(N)=O)C4)nc3F)cc2n1 [Compound 92, 2-[1-(5-{7-Cyclopropyl-5-[(1R)-1-methyl-1,2,3,4-tetrahydroisoquinoline-2-carbonyl]-pyrazolo[1,5-a]pyrimidin-2-yl}-6-fluoropyridin-2-yl)azetidin-3-yl]acetamide] | 0.071 µM | 41.5 µM | – |
| C[C@@H]1c2ccccc2CCN1C(=O)c1cc(C2CC2)n2nc(-c3ccc(N4CC[C@H](N)C4)cc3F)cc2n1 [Compound 93, (2-(4-((S)-3-aminopyrrolidin-1-yl)-2-fluorophenyl)-7-cyclopropylpyrazolo[1,5-a]pyrimidin-5-yl)((R)-1-methyl-3,4-dihydroisoquinolin-2(1H)-yl)methanone] | 0.039 µM | 13.4 µM | – |
| C[C@@H]1c2ccccc2CCN1C(=O)c1cc(C2CC2)n2nc(-c3ccc(N4CC[C@H](NCC(F)(F)F)C4)cc3F)cc2n1 [Compound 94, (7-cyclopropyl-2-(2-fluoro-4-((S)-3-((2,2,2-trifluoroethyl)amino)pyrrolidin-1-yl)phenyl)pyrazolo[1,5-a]pyrimidin-5-yl)((R)-1-methyl-3,4-dihydroisoquinolin-2(1H)-yl)methanone] | 0.19 µM | > 100 µM | – |
| C[C@@H]1c2ccccc2CCN1C(=O)c1cc(C2CC2)n2nc(-c3ccc(N4C[C@@H](O)[C@@H](O)C4)cc3F)cc2n1 [Compound 95, (7-cyclopropyl-2-(4-((3R,4S)-3,4-dihydroxypyrrolidin-1-yl)-2-fluorophenyl)pyrazolo[1,5-a]pyrimidin-5-yl)((R)-1-methyl-3,4-dihydroisoquinolin-2(1H)-yl)methanone] | 0.018 µM | 31.1 µM | – |
| C[C@@H]1c2ccccc2CCN1C(=O)c1cc(C2CC2)n2nc(-c3ccc(N4C[C@H](O)C(F)(F)C4)cc3F)cc2n1 [Compound 97, (7-cyclopropyl-2-(4-((S)-3,3-difluoro-4-hydroxypyrrolidin-1-yl)-2-fluorophenyl)pyrazolo[1,5-a]pyrimidin-5-yl)((R)-1-methyl-3,4-dihydroisoquinolin-2(1H)-yl)methanone] | 0.053 µM | 26.1 µM | – |
| C[C@@H]1c2ccccc2CCN1C(=O)c1cc(C2CC2)n2nc(-c3ccc(N4C[C@H](O)[C@H](O)[C@H]4CO)cc3F)cc2n1 [Compound 98] | 0.039 µM | 47.6 µM | – |
| C[C@@H]1c2ccccc2CCN1C(=O)c1cc(C2CC2)n2nc(-c3ccc(N4C[C@@H](O)[C@H](O)C4)cc3F)cc2n1 [Compound 100, (7-cyclopropyl-2-(4-((3R,4R)-3,4-dihydroxypyrrolidin-1-yl)-2-fluorophenyl)pyrazolo[1,5-a]pyrimidin-5-yl)((R)-1-methyl-3,4-dihydroisoquinolin-2(1H)-yl)methanone] | 0.011 µM | 23.8 µM | – |
| C[C@@H]1c2ccccc2CCN1C(=O)c1cc(C2CC2)n2nc(-c3ccc(N4CC[C@H](C(N)=S)C4)cc3F)cc2n1 [Compound 101, (S)-1-(4-(7-cyclopropyl-5-((R)-1-methyl-1,2,3,4-tetrahydroisoquinoline-2-carbonyl)pyrazolo[1,5-a]pyrimidin-2-yl)-3-fluorophenyl)pyrrolidine-3-carbothioamide] | 0.058 µM | 45.4 µM | – |
| C[C@@H]1c2ccccc2CCN1C(=O)c1cc(C2CC2)n2nc(-c3c(O)cc(N4CC[C@H](C(N)=O)C4)cc3F)cc2n1 [Compound 105, (S)-1-(4-(7-cyclopropyl-5-((R)-1-methyl-1,2,3,4-tetrahydroisoquinoline-2-carbonyl)pyrazolo[1,5-a]pyrimidin-2-yl)-3-fluoro-5-hydroxyphenyl)pyrrolidine-3-carboxamide] | 0.025 µM | 83.6 µM | – |
| C[C@@H]1c2ccccc2CCN1C(=O)c1cc(C2CC2)n2nc(-c3c(F)cc(N4CC[C@H](C(N)=O)C4)cc3OCCO)cc2n1 [Compound 106, (S)-1-(4-(7-cyclopropyl-5-((R)-1-methyl-1,2,3,4-tetrahydroisoquinoline-2-carbonyl)pyrazolo[1,5-a]pyrimidin-2-yl)-3-fluoro-5-(2-hydroxyethoxy)phenyl)pyrrolidine-3-carboxamide] | 0.089 µM | 21 µM | – |
